From patent US8580775B2, “Use of derivatives of sinapinic acid and compositions comprising such derivatives” (Cognis IP Management GmbH, priority 2007, dated 2013)

Tested on: Melanocytes (B16 cell line)
Assay: Melanogenesis Inhibition Assay
Assay type: cell-based
Settings: for Protein level (rate of cellular proteins) / Melanin level: B16 melanocytes, 3 days incubation, mean +/− SEM; for Protein level (rate of cellular proteins): Bradford's method; for Melanin level: optical density at 475 nm
Description: Melanocytes (B16 cell line) were inoculated in standard medium of cell culture with foetal calf serum (FCS). After an incubation of 3 days at 37° C. under 5% CO2, growth medium was exchanged for standard medium with a range of concentrations for each compound to be tested and a control without ingredient. After an incubation of 3 days, the level of melanin was measured by recording the optical density at 475 nm. After washing the cells with a balanced salt buffer, and homogenisation in a solution of 0.1 M NaOH, the number of viable cells was determined by evaluation of the level of cellular proteins (Bradford's method).
The results are expressed in % against control (cell culture medium without compound) as a mean+/−SEM (Standard Error of Mean) on 2 or 3 assays, each in triplicate.

Structure (SMILES) | Protein level (rate of cellular proteins) (dose 0.001 % (w/v)) | Melanin level (dose 0.001 % (w/v)) | Protein level (rate of cellular proteins) (dose 0.003 % (w/v)) | Melanin level (dose 0.003 % (w/v)) | cell toxicity (summary in words of Table 3) | Protein level (rate of cellular proteins) (dose 0.0003 % (w/v)) | Melanin level (dose 0.0003 % (w/v)) | Protein level (rate of cellular proteins) (dose 0.01 % (w/v)) | Melanin level (dose 0.01 % (w/v)) | rate of melanin synthesis in melanocytes (summary in words of Table 3)
CCOC(=O)/C(=C/c1cc(OC)c(O)c(OC)c1)C(C)=O [example 2] | 110 +/− 10 %/control | 108 +/− 3 %/control | 123 +/− 9 %/control | 54 +/− 6 %/control | without cell toxicity |  |  |  |  | 
COc1cc(/C=C/C(=O)O)cc(OC)c1OC(C)=O [example 1, 3,5-dimethoxy-4-acetoxy-cinnamic acid] | 95 +/− 1 %/control | 67 +/− 2 %/control | 93 +/− 3 %/control | 26 +/− 1 %/control | without cell toxicity | 100 +/− 1 %/control | 86 +/− 2 %/control | 81 +/− 10 %/control | 19 +/− 2 %/control | decreased
